Experimental data taken from US5212173A, “Alkylaminoalkylamine and ether compounds, processes and intermediates for their preparation, and medicaments containing them” (Kali-Chemie Pharma GmbH, priority 1990, dated 1993).

Key:
[1] = system: isolated guinea pig ileum; experiment: Spasmolytic action in vitro against potassium chloride-induced contraction on the isolated guinea pig ileum; type: cell-based; settings: Cavia porcellus, 50 mmol/l KCl, Tyrode solution, 37° C., read-out: EC50 (approximately 50% reduction in the maximum potassium chloride-induced contraction)
Source text: In a physiological saline solution, isolated organ strips from the gastrointestinal tract such as gastric fundus, gastric antrum, duodenum, ileum, proximal colon and distal colon react to the addition of a spasmogen, for example potassium chloride solution, by contracting. This contraction of the organ strips, induced by the addition of spasmogen, is decreased by addition of the compounds of the invention. The extent of the regression of the contraction is an index of the spasmolytic activity of the compounds. Determination of spasmolytic activity against potassium chloride-induced spasms in isolated guinea pig ileum.
Female guinea pigs of the Wiga strain having a body weight of about 300 g were sacrificed. Organ strips from the ileum about 1 cm long were placed in an organ bath of Tyrode solution at 37° C. and mounted in a conventional apparatus for the isotonic measurement of changes in length. Tyrode solution is an aqueous solution containing 136.9 mmol of NaCl, 2.68 mmol of KCl, 2.31 mmol of CaCl2, 1.0 mmol of MgCl2, 11.9 mmol of NaHCO3, 1.45 mmol of NaH2 PO4 and 5.55 mmol of glucose per liter. After an equilibration phase of one hour, 50 mmol/l of potassium chloride were added to the bath fluid to test the sensitivity of the ileum strips. The strips were then rinsed again with Tyrode solution. 50 mmol/l of potassium chloride were then added to the bath fluid again to induce a contraction of the ileum strip due to spasm. As soon as the contraction of the ileum strip due to spasm has reached a constant maximum value, the test substance was added to the bath fluid, and the decrease in the contraction was recorded and calculated as a % of the constant maximum contraction.
The following table A gives the obtained by the test method described above. The example numbers given in the table for the compounds of formula I correspond to the numbers of the subsequent Preparation Examples. In Table A, the EC50 represents the concentration of the test substance in moles/liter in the bath fluid with which an approximately 50% reduction is achieved in the strength of the maximum spasmodic contraction induced in the ileum strip by potassium chloride.

[2] = system: colon; experiment: Activity on spontaneous motility of the colon in anesthetized rats; type: in vivo, rat; settings: 100 μmol/kg i.p.
Description: The effects of the test substances on the amplitudes and frequencies of gastric and intestinal contractions were measured by the following experimental method. Determination of the activity of the test substances on the spontaneous motility of the colon in anesthetized rats.
Fasting rats of the SIV 50 strain having a body weight of 180-250 g were anesthetized with a ketamine/xylazine mixture. The animals were tracheotomised and laparotomised. After applying a pylorus ligature, a stomach tube was inserted into the stomach and connected at the other end to a calibrated pressure transducer (Statham element P 23 ID) via a three-way tap. A corresponding tube was inserted rectally 8 to 9 cm into the colon and likewise connected, in the same manner, to a corresponding calibrated pressure transducer. The stomach of the animals was then filled with 2 to 3 ml of water via the tube. The pressure variations in the colon were recorded before and after administration of the test substances using a Watanabe multicorder (MC 641). The differences between the average amplitudes before and after the treatment were determined, and the percent change in the average amplitudes caused by the test substances relative to the values obtained before the treatment is reported in the following Table B.

[3] = in vivo, po, 1440 min
Description: Male mice weighing 20-25 g were orally administered maximum doses of 300 mg/kg of the test substance. The animals were carefully observed for toxic symptoms for three hours. All symptoms and deaths over a period of 24 hours after administration were also recorded. Accompanying symptoms were likewise observed and recorded. If death or strongly toxic symptoms was observed, increasingly smaller doses were administered to further mice until toxic symptoms no longer occurred. The lowest dose which caused death or strongly toxic symptoms is given as the minimum toxic dose in the following Table B.

Row | Structure (SMILES) | EC50 [1] | Action on spontaneous motility in the colon, % amplitude reduction [2] | Minimum toxic dose in the mouse [3]
1 | COc1ccc(CN(CCN(C)CCO[C@@H]2C[C@H](C)CC[C@H]2C(C)C)C(C)C)cc1OC [Example 23] | 1.5 µM |  | 
2 | COc1ccc(CCN(C)CCN(C)CCOCC[C@@H]2CC[C@H]3C[C@@H]2C3(C)C)cc1OC [Example 21] | 3.6 µM | 62% | 300 mg/kg
3 | CC(C)[C@@H]1CC[C@@H](C)C[C@H]1OCCN(C)CCN(C)CCCCc1ccccc1 [Example 50] | 1.3 µM |  | 
4 | CC(C)[C@@H]1CC[C@@H](C)C[C@H]1OCCN(C)CCN1CCOCC1 [Example 1, N-[2-((1R,3R,4S)-1-methyl-4-isopropylcyclohex-3-yloxy)ethyl]-N-[2-(morpholin-1-yl)ethyl]-N-methylamine] | 12 µM | 55% | > 300 mg/kg
5 | CC(C)COCCNCCO[C@@H]1C[C@H](C)CC[C@H]1C(C)C [Example 16, N-[2-((1R,3R,4S)-1-methyl-4-isopropylcyclohex-3-yloxy)ethyl]-N-[2-(2,2-dimethylethoxy)ethyl]amine] | 4.9 µM |  | 
6 | CC(C)[C@@H]1CC[C@@H](C)C[C@H]1OCCN(C)CCCCCCN1CCOCC1 [Example 36] | 43 µM |  | 
7 | CC(C)N(CCOCC[C@@H]1CC[C@H]2C[C@@H]1C2(C)C)CCN1CCOCC1 [Example 20] | 7.9 µM | 69% | > 300 mg/kg
8 | CN(CCO[C@@H]1C[C@@H]2CC[C@@]1(C)C2(C)C)CCN1CCOCC1 [Example 38] | 19 µM |  | 
9 | CN(CCO[C@H]1C(C)(C)[C@@H]2CC[C@@]1(C)C2)CCN1CCOCC1 [Example 37] | 26 µM |  | 
10 | CC(C)[C@@H]1CC[C@@H](C)C[C@H]1OCCN(C)CCN(Cc1ccccc1)Cc1ccccc1 [Example 48] | 0.68 µM | 85% | 
11 | CC(C)[C@@H]1CC[C@@H](C)C[C@H]1OCCN(C)CCOCc1ccccc1 [Example 35] | 1.9 µM |  | 
12 | CC(C)COCCN(C)CCO[C@@H]1C[C@H](C)CC[C@H]1C(C)C [Example 2, N-[2-((1R,3R,4S)-1-methyl-4-isopropylcyclohex-3-yloxy)ethyl]-N-[2-(2,2-dimethylethoxy)ethyl]-N-methylamine] | 2 µM | 55% | > 300 mg/kg
13 | CC(C)[C@@H]1CC[C@@H](C)C[C@H]1OCCN(C)CCN(C)CCc1ccccc1Cl [Example 46] | 4.8 µM |  | 
14 | CCOCCN(C)CCOCC[C@@H]1CC[C@H]2C[C@@H]1C2(C)C [Example 22] | 8.7 µM | 85% | 100 mg/kg

Second part, led by results:

Row | EC50 [1] | Structure (SMILES) | Action on spontaneous motility in the colon, % amplitude reduction [2] | Minimum toxic dose in the mouse [3]
15 | 2.4 µM | CC(C)[C@@H]1CC[C@@H](C)C[C@H]1OCCN(C)CCNCc1ccc(Cl)c(Cl)c1 [Example 44] |  | 
16 | 14 µM | CC(C)[C@H]1CC[C@H](C)C[C@@H]1OCCN(C)CCN1CCOCC1 [Example 24] |  | 
17 | 30 µM | CN(CCCCCOCC[C@@H]1CC[C@H]2C[C@@H]1C2(C)C)CCN1CCOCC1 [Example 10, N-(5-[2-((1S,2S,5S)-6,6-dimethylbicyclo[3.1.1]hept-2-yl)ethoxy]pentyl)-N-[2-(morpholin-1-yl)ethyl]-N-methylamine] |  | 
18 | 16 µM | CN(CCSCC[C@@H]1CC[C@H]2C[C@@H]1C2(C)C)CCN1CCOCC1 [Example 7, N-(2-[2-((1S,2S,5S)-6,6-dimethylbicyclo[3.1.1]hept-2-yl)ethylthio]ethyl)-N-[2-(morpholin-1-yl)ethyl]-N-methylamine] |  | 
19 | 47 µM | CC(C)[C@@H]1CC[C@@H](C)C[C@H]1OCCN(C)CCN1CCN(C)CC1 [Example 34] |  | 
20 | 0.54 µM | COc1cc(CN(C)CCN(C)CCO[C@@H]2C[C@H](C)CC[C@H]2C(C)C)cc(OC)c1OC [Example 19, N-[2-((1R,3R,4S)-1-methyl-4-isopropylcyclohex-3-yloxy)ethyl]-N-(2-[N'-(3,4,5-trimethoxybenzyl)-N'-methylamino]ethyl)-N-methylamine] | 74% | 
21 | 20 µM | CC(C)[C@@H]1CC[C@@H](C)C[C@H]1OCCN(C)CCN1CCCC1 [Example 32] |  | 
